# Measurements reported in PubChem BioAssay AID1963849 (Molecular Pharmacology Branch, DTP, NCI, 2024).
# System: 299254-011-R-J1-PDC complex spheroid viability
# Assay: Anticancer human tumor 299254-011-R-J1-PDC patient-derived melanoma cell line growth inhibition [POLQ]
# Conditions: for IC50: curve of first compound; for viability, T/C: stronger effect = lower value
# Outline: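 PDC + HUVEC + MSC complex spheroids; POLQ inhibitors ± partner drugs; top conc. at/near clinical Cmax, else 10 microM (SN-38 1 microM), half-log dilutions; 37 degrees C, 5% CO2.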
# [1] = second compound 0.0316 µM, first compound 0.0316 µM
# [2] = second compound 0.0316 µM, first compound 0.1 µM
# [3] = second compound 0.0316 µM, first compound 0.316 µM
# [4] = second compound 0.0316 µM, first compound 1 µM
# [5] = second compound 0.0316 µM, first compound 3.16 µM
# [6] = second compound 0.0316 µM, first compound 10 µM
# [7] = second compound 0.1 µM, first compound 0.0316 µM
# [8] = second compound 0.1 µM, first compound 0.1 µM
# [9] = second compound 0.1 µM, first compound 0.316 µM
# [10] = second compound 0.1 µM, first compound 1 µM
# [11] = second compound 0.1 µM, first compound 3.16 µM
# [12] = second compound 0.1 µM, first compound 10 µM
# [13] = second compound 0.316 µM, first compound 0.0316 µM
# [14] = second compound 0.316 µM, first compound 0.1 µM
# [15] = second compound 0.316 µM, first compound 0.316 µM
# [16] = second compound 0.316 µM, first compound 1 µM
# [17] = second compound 0.316 µM, first compound 3.16 µM
# [18] = second compound 0.316 µM, first compound 10 µM
# [19] = second compound 1 µM, first compound 0.0316 µM
# [20] = second compound 1 µM, first compound 0.1 µM
# [21] = second compound 1 µM, first compound 0.316 µM
# [22] = second compound 1 µM, first compound 1 µM
# [23] = second compound 1 µM, first compound 3.16 µM
# [24] = second compound 1 µM, first compound 10 µM
# [25] = second compound 3.16 µM, first compound 0.0316 µM
# [26] = second compound 3.16 µM, first compound 0.1 µM
# [27] = second compound 3.16 µM, first compound 0.316 µM
# [28] = second compound 3.16 µM, first compound 1 µM
# [29] = second compound 3.16 µM, first compound 3.16 µM
# [30] = second compound 3.16 µM, first compound 10 µM
# [31] = second compound 10 µM, first compound 0.0316 µM
# [32] = second compound 10 µM, first compound 0.1 µM
# [33] = second compound 10 µM, first compound 0.316 µM
# [34] = second compound 10 µM, first compound 1 µM
# [35] = second compound 10 µM, first compound 3.16 µM
# [36] = second compound 10 µM, first compound 10 µM
# 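Further: spheroids exposed to drugs for one week before measurement.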
# 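Wherever viability, T/C is given: percent viability relative to DMSO vehicle control taken as 100%.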
smiles,measurement,setting,value
CC(=O)O[C@H]1C(=O)[C@@]2(C)[C@H]([C@H](OC(=O)c3ccccc3)[C@]3(O)C[C@H](OC(=O)[C@H](O)[C@@H](NC(=O)c4ccccc4)c4ccccc4)C(C)=C1C3(C)C)[C@]1(OC(C)=O)CO[C@@H]1C[C@@H]2O + COC1C(OC(N)=O)C(O)C(Oc2ccc3c(O)c(NC(=O)c4ccc(O)c(CC=C(C)C)c4)c(=O)oc3c2C)OC1(C)C,IC50,second compound 0.0316 µM,0.108 µM
same,IC50,second compound 0.1 µM,0.0707 µM
same,IC50,second compound 0.316 µM,0.0719 µM
same,IC50,second compound 1 µM,0.0719 µM
same,IC50,second compound 3.16 µM,0.124 µM
same,IC50,second compound 10 µM,0.0902 µM
same,"viability, T/C","second compound 0.0316 µM, first compound 0.00949 µM",77.3%
same,"viability, T/C","second compound 0.0316 µM, first compound 0.03 µM",75.9%
same,"viability, T/C","second compound 0.0316 µM, first compound 0.0949 µM",53.4%
same,"viability, T/C","second compound 0.0316 µM, first compound 0.3 µM",23.2%
same,"viability, T/C","second compound 0.0316 µM, first compound 0.949 µM",21.8%
same,"viability, T/C","second compound 0.0316 µM, first compound 3 µM",15.9%
same,"viability, T/C","second compound 0.1 µM, first compound 0.00949 µM",97%
same,"viability, T/C","second compound 0.1 µM, first compound 0.03 µM",63.3%
same,"viability, T/C","second compound 0.1 µM, first compound 0.0949 µM",46.7%
same,"viability, T/C","second compound 0.1 µM, first compound 0.3 µM",30.9%
same,"viability, T/C","second compound 0.1 µM, first compound 0.949 µM",21.4%
same,"viability, T/C","second compound 0.1 µM, first compound 3 µM",16%
same,"viability, T/C","second compound 0.316 µM, first compound 0.00949 µM",101%
same,"viability, T/C","second compound 0.316 µM, first compound 0.03 µM",73.1%
same,"viability, T/C","second compound 0.316 µM, first compound 0.0949 µM",41.4%
same,"viability, T/C","second compound 0.316 µM, first compound 0.3 µM",29.5%
same,"viability, T/C","second compound 0.316 µM, first compound 0.949 µM",21.2%
same,"viability, T/C","second compound 0.316 µM, first compound 3 µM",20%
same,"viability, T/C","second compound 1 µM, first compound 0.00949 µM",95.1%
same,"viability, T/C","second compound 1 µM, first compound 0.03 µM",70%
same,"viability, T/C","second compound 1 µM, first compound 0.0949 µM",43.8%
same,"viability, T/C","second compound 1 µM, first compound 0.3 µM",27.1%
same,"viability, T/C","second compound 1 µM, first compound 0.949 µM",22.2%
same,"viability, T/C","second compound 1 µM, first compound 3 µM",18.3%
same,"viability, T/C","second compound 3.16 µM, first compound 0.00949 µM",90.7%
same,"viability, T/C","second compound 3.16 µM, first compound 0.03 µM",68.3%
same,"viability, T/C","second compound 3.16 µM, first compound 0.0949 µM",61.3%
same,"viability, T/C","second compound 3.16 µM, first compound 0.3 µM",31.5%
same,"viability, T/C","second compound 3.16 µM, first compound 0.949 µM",22.6%
same,"viability, T/C","second compound 3.16 µM, first compound 3 µM",16.8%
same,"viability, T/C","second compound 10 µM, first compound 0.00949 µM",86.6%
same,"viability, T/C","second compound 10 µM, first compound 0.03 µM",84.9%
same,"viability, T/C","second compound 10 µM, first compound 0.0949 µM",47.1%
same,"viability, T/C","second compound 10 µM, first compound 0.3 µM",28%
same,"viability, T/C","second compound 10 µM, first compound 0.949 µM",21.6%
same,"viability, T/C","second compound 10 µM, first compound 3 µM",17.6%
CCc1cc2c(N3CCc4c(cc(Cn5ccnc5)cc4-c4cn(C)nc4C(F)(F)F)C3=O)ccnc2c(OC)n1 + Nc1ccc(C#CCN(C(=O)Cc2ncc(C(F)(F)F)cc2C(F)(F)F)c2ccc(F)cc2)nn1,IC50,second compound 0.0316 µM,> 10 µM
same,IC50,second compound 0.1 µM,> 10 µM
same,IC50,second compound 0.316 µM,> 10 µM
same,IC50,second compound 1 µM,> 10 µM
same,IC50,second compound 3.16 µM,> 10 µM
same,IC50,second compound 10 µM,> 10 µM
same,"viability, T/C",[1],118%
same,"viability, T/C",[2],99.3%
same,"viability, T/C",[3],93.6%
same,"viability, T/C",[4],115%
same,"viability, T/C",[5],109%
same,"viability, T/C",[6],74.3%
same,"viability, T/C",[7],101%
same,"viability, T/C",[8],107%
same,"viability, T/C",[9],91.4%
same,"viability, T/C",[10],99.2%
same,"viability, T/C",[11],89.2%
same,"viability, T/C",[12],73.6%
same,"viability, T/C",[13],126%
same,"viability, T/C",[14],100%
same,"viability, T/C",[15],107%
same,"viability, T/C",[16],98.9%
same,"viability, T/C",[17],97.2%
same,"viability, T/C",[18],79.5%
same,"viability, T/C",[19],102%
same,"viability, T/C",[20],114%
same,"viability, T/C",[21],103%
same,"viability, T/C",[22],101%
same,"viability, T/C",[23],89%
same,"viability, T/C",[24],73.5%
same,"viability, T/C",[25],96.9%
same,"viability, T/C",[26],97.2%
same,"viability, T/C",[27],89.5%
same,"viability, T/C",[28],100%
same,"viability, T/C",[29],84.5%
same,"viability, T/C",[30],76.5%
same,"viability, T/C",[31],90.4%
same,"viability, T/C",[32],103%
same,"viability, T/C",[33],87%
same,"viability, T/C",[34],80.6%
same,"viability, T/C",[35],84.8%
same,"viability, T/C",[36],62.2%
COc1cc(C2c3cc4c(cc3C(OC3OC5COC(C)OC5C(O)C3O)C3COC(=O)C23)OCO4)cc(OC)c1O (stereo not drawn) + COC1C(OC(N)=O)C(O)C(Oc2ccc3c(O)c(NC(=O)c4ccc(O)c(CC=C(C)C)c4)c(=O)oc3c2C)OC1(C)C,IC50,second compound 0.0316 µM,> 10 µM
same,IC50,second compound 0.1 µM,9.11 µM
same,IC50,second compound 0.316 µM,> 10 µM
same,IC50,second compound 1 µM,9.93 µM
same,IC50,second compound 3.16 µM,> 10 µM
same,IC50,second compound 10 µM,> 10 µM
same,"viability, T/C",[1],99%
same,"viability, T/C",[2],85.6%
same,"viability, T/C",[3],101%
same,"viability, T/C",[4],83.7%
same,"viability, T/C",[5],65.8%
same,"viability, T/C",[6],55.1%
same,"viability, T/C",[7],93.8%
same,"viability, T/C",[8],96.1%
same,"viability, T/C",[9],97.4%
same,"viability, T/C",[10],78.3%
same,"viability, T/C",[11],65.3%
same,"viability, T/C",[12],48.2%
same,"viability, T/C",[13],98%
same,"viability, T/C",[14],83.8%
same,"viability, T/C",[15],90.9%
same,"viability, T/C",[16],86.7%
same,"viability, T/C",[17],75.2%
same,"viability, T/C",[18],55.4%
same,"viability, T/C",[19],95.2%
same,"viability, T/C",[20],100%
same,"viability, T/C",[21],99.3%
same,"viability, T/C",[22],101%
same,"viability, T/C",[23],77.2%
same,"viability, T/C",[24],49.9%
same,"viability, T/C",[25],95.5%
same,"viability, T/C",[26],107%
same,"viability, T/C",[27],108%
same,"viability, T/C",[28],95.2%
same,"viability, T/C",[29],63.6%
same,"viability, T/C",[30],59.4%
same,"viability, T/C",[31],103%
same,"viability, T/C",[32],99.7%
same,"viability, T/C",[33],101%
same,"viability, T/C",[34],86.6%
same,"viability, T/C",[35],80.6%
same,"viability, T/C",[36],55.9%
C#Cc1c(F)ccc2cc(O)cc(-c3ncc4c(N5CC6CCC(C5)N6)nc(OCC56CCCN5CC(F)C6)nc4c3F)c12 (stereo not drawn) + Nc1ccc(C#CCN(C(=O)Cc2ncc(C(F)(F)F)cc2C(F)(F)F)c2ccc(F)cc2)nn1,IC50,second compound 0.0316 µM,> 10 µM
same,IC50,second compound 0.1 µM,> 10 µM
same,IC50,second compound 0.316 µM,> 10 µM
same,IC50,second compound 1 µM,> 10 µM
same,IC50,second compound 3.16 µM,> 10 µM
same,IC50,second compound 10 µM,> 10 µM
same,"viability, T/C",[1],106%
same,"viability, T/C",[2],108%
same,"viability, T/C",[3],106%
same,"viability, T/C",[4],112%
same,"viability, T/C",[5],116%
same,"viability, T/C",[6],82.1%
same,"viability, T/C",[7],92.3%
same,"viability, T/C",[8],109%
same,"viability, T/C",[9],110%
same,"viability, T/C",[10],104%
same,"viability, T/C",[11],103%
same,"viability, T/C",[12],90.2%
same,"viability, T/C",[13],107%
same,"viability, T/C",[14],103%
same,"viability, T/C",[15],133%
same,"viability, T/C",[16],104%
same,"viability, T/C",[17],98%
same,"viability, T/C",[18],92.4%
same,"viability, T/C",[19],114%
same,"viability, T/C",[20],102%
same,"viability, T/C",[21],104%
same,"viability, T/C",[22],136%
same,"viability, T/C",[23],103%
same,"viability, T/C",[24],103%
same,"viability, T/C",[25],117%
same,"viability, T/C",[26],118%
same,"viability, T/C",[27],106%
same,"viability, T/C",[28],128%
same,"viability, T/C",[29],99.1%
same,"viability, T/C",[30],86.6%
same,"viability, T/C",[31],103%
same,"viability, T/C",[32],89.5%
same,"viability, T/C",[33],92.6%
same,"viability, T/C",[34],128%
same,"viability, T/C",[35],96.9%
same,"viability, T/C",[36],68.6%
